Laboratory results taken from publication PMC11112591 (ACS Omega, 2024).

What was measured:
[1] = Mouse liver microsome intrinsic clearance; format: in vitro ADME; conditions: liver microsomes, pH 7.4
[2] = Parallel artificial membrane permeability assay; format: in vitro ADME; conditions: PAMPA, PAMPA effective permeability, donor pH 6.5, acceptor pH 7.5, 5 h, 37 °C
[3] = biological target: CYP51 (Trypanosoma cruzi, UniProt Q7Z1V1); assay: CYP51 inhibition of initial hits; format: biochemical; conditions: initial hit data, Figure 1
CYP51, sequence (Q7Z1V1 whole entry): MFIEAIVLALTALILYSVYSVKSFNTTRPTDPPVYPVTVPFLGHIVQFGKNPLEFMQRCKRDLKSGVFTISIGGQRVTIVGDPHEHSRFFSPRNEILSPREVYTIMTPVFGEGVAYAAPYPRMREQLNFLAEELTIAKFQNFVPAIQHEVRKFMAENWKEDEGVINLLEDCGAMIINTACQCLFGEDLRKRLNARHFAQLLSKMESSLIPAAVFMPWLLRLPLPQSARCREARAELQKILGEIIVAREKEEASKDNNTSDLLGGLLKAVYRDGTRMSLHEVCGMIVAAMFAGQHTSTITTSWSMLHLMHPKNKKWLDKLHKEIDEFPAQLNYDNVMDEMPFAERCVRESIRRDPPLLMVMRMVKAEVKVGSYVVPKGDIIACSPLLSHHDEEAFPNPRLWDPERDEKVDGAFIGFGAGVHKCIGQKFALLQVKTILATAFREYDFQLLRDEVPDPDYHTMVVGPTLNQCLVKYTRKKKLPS

Row | SMILES | microsomal CLint at 0.5 µM [1] [µL/min/mg] | Papp at 5 h, 1 µM [2] [×10⁻⁶ cm/s] | CYP51 IC50 [3]
1 | Cc1cc(C)c(C#N)c(SCC(=O)c2cccs2)n1 [Compound 1, c1(SCC(=O)c2cccs2)nc(C)cc(C)c1C#N] | 3480 | 25.4 | no clear CYP51 inhibition
2 | Cc1cc(C)c(C#N)c(SCC(=O)c2ccc(Cl)cc2Cl)n1 [Compound 9, Clc1cc(ccc1C(CSc2c(C#N)c(C)cc(C)n2)=O)Cl] | 35300 | 1.7 | 
3 | Cc1cc(C)c(C#N)c(OCC(=O)c2ccccc2)n1 [Compound 23, O(c1nc(C)cc(C)c1C#N)CC(=O)c2ccccc2] | 3240 | 31.1 | 
4 | Cc1cc(C)c(C(N)=O)c(SCC(=O)c2ccc(F)cc2)n1 [Compound 38, O=C(CSc1nc(C)cc(C)c1C(=O)N)c2ccc(F)cc2] | 892 | 17.5 | 
5 | Cc1cc(C)c(C#N)c(SCC(=O)N2CCOCC2)n1 [Compound 16, Cc1c(C#N)c(SCC(=O)N2CCOCC2)nc(C)c1] | 73.9 | 11.7 | 
6 | Cc1cc(C)c(C#N)c(SCC(=O)c2ccsc2)n1 [Compound 3, S(c1nc(C)cc(C)c1C#N)CC(=O)c2cscc2] | 1320 | 23.3 | 
7 | Cc1cc(C)c(C#N)c(SCC(=O)c2ccc(F)cc2F)n1 [Compound 7, O=C(CSc1nc(C)cc(C)c1C#N)c2ccc(F)cc2F] | 4040 | 7.5 | 
8 | COc1ccccc1C(=O)CSc1nc(C)cc(C)c1C#N [Compound 10, S(c1nc(C)cc(C)c1C#N)CC(=O)c2ccccc2OC] | 9670 | 9.3 | 

The next lines start with the values.

Row | microsomal CLint at 0.5 µM [1] [µL/min/mg] | Papp at 5 h, 1 µM [2] [×10⁻⁶ cm/s] | CYP51 IC50 [3] | SMILES
9 | 1560 | 20.4 |  | Cc1cc(C)c(C#N)c(SCC(=O)c2ccccc2)n1 [Compound 2, c1c(C)c(C#N)c(SCC(=O)c2ccccc2)nc1C]
10 | 4300 | 24.6 |  | COc1ccc(C(=O)CSc2nc(C)cc(C)c2C#N)cc1 [Compound 11, S(c1nc(C)cc(C)c1C#N)CC(=O)c2ccc(OC)cc2]
11 | 8880 | 4.3 |  | Cc1cc(C)c(C#N)c(SCC(=O)c2ccc(Cl)cc2)n1 [Compound 8, Cc1c(C#N)c(SCC(=O)c2ccc(Cl)cc2)nc(C)c1]
12 | 8860 | 1 |  | CCc1ccc(C(=O)CSc2nc(C)cc(C)c2C#N)cc1 [Compound 5, S(c1nc(C)cc(C)c1C#N)CC(=O)c2ccc(CC)cc2]
13 |  | 8 |  | Cc1cc(C)c(C#N)c(SCC(=O)c2ccc(F)cc2)n1 [Compound 6, S(c1nc(C)cc(C)c1C#N)CC(=O)c2ccc(F)cc2]
